Experiments:
[1] = molecular target: T1, Acetylcholinesterase (Homo sapiens, UniProt P22303); test: Inhibition of acetylcholinesterase (unknown origin) using acetylthiocholine as substrate preincubated for 30 mins followed by substrate addition and measured after 2 mins by Ellman's method
[2] = molecular target: T1, Acetylcholinesterase; test: Inhibition of acetylcholinesterase (unknown origin) at 0.01 to 100 uM using acetylthiocholine as substrate preincubated for 30 mins followed by substrate addition and measured after 2 mins by Ellman's method relative to control

T1 sequence (P22303 whole entry): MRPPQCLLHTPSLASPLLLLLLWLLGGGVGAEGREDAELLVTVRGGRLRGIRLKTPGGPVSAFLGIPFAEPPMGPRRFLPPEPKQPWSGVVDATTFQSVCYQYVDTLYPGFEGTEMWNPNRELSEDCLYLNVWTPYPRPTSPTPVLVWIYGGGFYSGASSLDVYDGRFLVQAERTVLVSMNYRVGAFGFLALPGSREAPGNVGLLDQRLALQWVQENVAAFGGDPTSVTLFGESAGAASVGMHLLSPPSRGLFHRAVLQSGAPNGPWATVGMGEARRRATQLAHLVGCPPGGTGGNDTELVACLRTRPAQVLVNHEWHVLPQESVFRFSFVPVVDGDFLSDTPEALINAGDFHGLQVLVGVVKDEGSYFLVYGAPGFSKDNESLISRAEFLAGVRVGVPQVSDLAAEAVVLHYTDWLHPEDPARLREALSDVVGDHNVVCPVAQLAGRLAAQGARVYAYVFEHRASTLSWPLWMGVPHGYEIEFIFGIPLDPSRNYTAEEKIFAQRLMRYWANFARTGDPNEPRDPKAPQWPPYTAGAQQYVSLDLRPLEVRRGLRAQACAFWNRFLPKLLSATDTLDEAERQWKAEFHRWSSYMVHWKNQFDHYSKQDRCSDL

| Compound | IC50 [1] [nM] | inhibition [2] [%] |
| --- | --- | --- |
| COc1ccc([C@H]2O[C@@H](O)[C@H]3[C@@H]2C(=O)O[C@@H]3c2ccc(OC)c(OC)c2)cc1OC | 28 | > 70 |
| COc1ccc([C@H]2OC[C@H]3[C@@H]2CO[C@@H]3c2cc(OC)c(OC)c(OC)c2)cc1OC | 903 | > 90 |
| COc1ccc([C@H]2O[C@@H](O)[C@H]3[C@@H]2C(=O)O[C@@H]3c2cc(OC)c3c(c2)OCO3)cc1OC | 3 | > 70 |
| COc1ccc([C@H](O)[C@H](N)C(=O)O)cc1OC | 1 | > 70 |
| COc1cc([C@H]2OC[C@H]3[C@@H]2CO[C@@H]3c2cc(OC)c(OC)c(OC)c2)cc(OC)c1OC | 616 | 65 |
| COc1ccc([C@H]2OC(=O)[C@H]3[C@@H]2C(=O)O[C@@H]3c2ccc3c(c2)OCO3)cc1OC | 158 | > 90 |
| COc1cc([C@H]2OC[C@H]3[C@@H]2CO[C@@H]3c2cc(OC)c3c(c2)OCO3)cc(OC)c1OC | 460 | 81 |
| COc1ccc([C@H]2OC[C@H]3[C@@H]2C(=O)O[C@@H]3c2ccc3c(c2)OCO3)cc1OC | 2230 | > 70 |

From ChEMBL document CHEMBL4616644, “Furofuranone Lignans from Leucophyllum ambiguum” (J Nat Prod, 2020)
